The values below come from US11306095B2 (EAST CHINA UNIVERSITY OF SCIENCE AND TECHNOLOGY, priority 2015, dated 2022).

SMILES strings stand for the structures. ≈ marks a conversion by molar mass, not a printed value.

What is called melting point is the temperature, or range, at which the solid turns liquid.

One data set addresses T1, Wild type EGFR (Homo sapiens, UniProt P00533).
T1 construct: purchased Invitrogen PV3872
Description: Kinase activity test (FRET), wild type EGFR. Type of data set: biochemical. The note with it: wild type EGFR; read-out: Inhibitory activity of EGFR on kinase (IC50, nM) WT. The gist of the method: (§1)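 FRET assay with coumarin/fluorescein-labelled poly(Glu, Tyr)4:1 peptide and ATP, compounds at 5.1×10^−11 to 1.0×10^−6 mol/L final. Kinase reaction 1.5 h at room temperature, then 1 h development cleaving unphosphorylated peptide.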

Data set [1] relates to A431 cells (EGFR wild type). Description: Inhibitory activity on cell proliferation, A431. Type of data set: cell-based. The conditions noted are these: Homo sapiens, A-431; A431, 72 hours; read-out: Inhibitory activity on proliferation of cells (IC50, μM) A431.
Data set [2] relates to H1975 cells (EGFR L858R/T790M). Description: Inhibitory activity on cell proliferation, H1975. The format is cell-based. The note with it: Homo sapiens, NCI-H1975; H1975, 72 hours; read-out: Inhibitory activity on proliferation of cells (IC50, μM) H1975.
Data set [3] in a line: Determination of solubility in water (PBS 20 mM, pH 6.8). The conditions noted are these: PBS buffer, aqueous buffer, thermodynamic from solid; pH 6.8, 20 mM PBS; read-out: Solubility (pH 6.8, g/mL). Type of data set: physicochemical. An outline of the steps: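 Compound suspension filtered (0.22 μm PVDF), diluted in 50% methanol/50% PBS, absorbance read by UV spectrophotometry. Solubility calculated from a standard curve of 0.01–0.05 mg/mL methanol-derived solutions (r > 0.998).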

A further data set deals with T2, EGFR-L858R/T790M (Homo sapiens, UniProt P00533, L858R/T790M).
T2 construct: purchased Invitrogen PV4879
Briefly: Kinase activity test (FRET), EGFR T790M/L858R. Type of data set: biochemical. The note with it: EGFR T790M/L858R; read-out: Inhibitory activity of EGFR on kinase (IC50, nM) T790M/L858R. The gist of the method:
as §1

T1 sequence (P00533 25-1210): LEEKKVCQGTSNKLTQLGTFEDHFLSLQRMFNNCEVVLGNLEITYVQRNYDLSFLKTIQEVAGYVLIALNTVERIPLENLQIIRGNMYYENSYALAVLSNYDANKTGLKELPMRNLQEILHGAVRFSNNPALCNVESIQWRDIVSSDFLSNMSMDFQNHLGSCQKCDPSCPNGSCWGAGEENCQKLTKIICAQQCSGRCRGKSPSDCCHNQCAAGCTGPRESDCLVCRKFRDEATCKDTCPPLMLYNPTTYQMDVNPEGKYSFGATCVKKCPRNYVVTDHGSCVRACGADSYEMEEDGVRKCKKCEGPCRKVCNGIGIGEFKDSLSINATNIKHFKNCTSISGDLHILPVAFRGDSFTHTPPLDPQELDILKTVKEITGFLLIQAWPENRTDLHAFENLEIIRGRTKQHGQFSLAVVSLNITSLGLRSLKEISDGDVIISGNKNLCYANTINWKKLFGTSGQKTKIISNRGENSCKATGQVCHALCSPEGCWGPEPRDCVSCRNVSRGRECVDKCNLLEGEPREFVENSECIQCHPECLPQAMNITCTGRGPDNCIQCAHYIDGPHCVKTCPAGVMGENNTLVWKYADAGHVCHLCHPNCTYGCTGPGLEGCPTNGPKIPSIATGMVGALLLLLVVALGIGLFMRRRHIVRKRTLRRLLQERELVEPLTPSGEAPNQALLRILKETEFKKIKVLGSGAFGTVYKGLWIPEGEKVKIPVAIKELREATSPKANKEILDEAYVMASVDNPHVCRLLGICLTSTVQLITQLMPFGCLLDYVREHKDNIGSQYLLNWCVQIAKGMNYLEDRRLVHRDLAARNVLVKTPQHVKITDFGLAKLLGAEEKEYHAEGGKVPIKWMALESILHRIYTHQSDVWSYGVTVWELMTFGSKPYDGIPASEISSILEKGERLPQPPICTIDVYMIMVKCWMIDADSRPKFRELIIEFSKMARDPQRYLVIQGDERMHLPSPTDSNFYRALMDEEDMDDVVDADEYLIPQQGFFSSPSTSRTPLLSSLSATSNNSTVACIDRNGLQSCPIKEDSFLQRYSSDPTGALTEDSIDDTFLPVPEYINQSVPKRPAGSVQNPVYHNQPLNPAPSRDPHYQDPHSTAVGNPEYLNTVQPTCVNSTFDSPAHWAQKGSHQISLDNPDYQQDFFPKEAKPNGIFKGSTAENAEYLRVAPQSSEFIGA
T2 sequence (P00533 25-1210 T790M/L858R): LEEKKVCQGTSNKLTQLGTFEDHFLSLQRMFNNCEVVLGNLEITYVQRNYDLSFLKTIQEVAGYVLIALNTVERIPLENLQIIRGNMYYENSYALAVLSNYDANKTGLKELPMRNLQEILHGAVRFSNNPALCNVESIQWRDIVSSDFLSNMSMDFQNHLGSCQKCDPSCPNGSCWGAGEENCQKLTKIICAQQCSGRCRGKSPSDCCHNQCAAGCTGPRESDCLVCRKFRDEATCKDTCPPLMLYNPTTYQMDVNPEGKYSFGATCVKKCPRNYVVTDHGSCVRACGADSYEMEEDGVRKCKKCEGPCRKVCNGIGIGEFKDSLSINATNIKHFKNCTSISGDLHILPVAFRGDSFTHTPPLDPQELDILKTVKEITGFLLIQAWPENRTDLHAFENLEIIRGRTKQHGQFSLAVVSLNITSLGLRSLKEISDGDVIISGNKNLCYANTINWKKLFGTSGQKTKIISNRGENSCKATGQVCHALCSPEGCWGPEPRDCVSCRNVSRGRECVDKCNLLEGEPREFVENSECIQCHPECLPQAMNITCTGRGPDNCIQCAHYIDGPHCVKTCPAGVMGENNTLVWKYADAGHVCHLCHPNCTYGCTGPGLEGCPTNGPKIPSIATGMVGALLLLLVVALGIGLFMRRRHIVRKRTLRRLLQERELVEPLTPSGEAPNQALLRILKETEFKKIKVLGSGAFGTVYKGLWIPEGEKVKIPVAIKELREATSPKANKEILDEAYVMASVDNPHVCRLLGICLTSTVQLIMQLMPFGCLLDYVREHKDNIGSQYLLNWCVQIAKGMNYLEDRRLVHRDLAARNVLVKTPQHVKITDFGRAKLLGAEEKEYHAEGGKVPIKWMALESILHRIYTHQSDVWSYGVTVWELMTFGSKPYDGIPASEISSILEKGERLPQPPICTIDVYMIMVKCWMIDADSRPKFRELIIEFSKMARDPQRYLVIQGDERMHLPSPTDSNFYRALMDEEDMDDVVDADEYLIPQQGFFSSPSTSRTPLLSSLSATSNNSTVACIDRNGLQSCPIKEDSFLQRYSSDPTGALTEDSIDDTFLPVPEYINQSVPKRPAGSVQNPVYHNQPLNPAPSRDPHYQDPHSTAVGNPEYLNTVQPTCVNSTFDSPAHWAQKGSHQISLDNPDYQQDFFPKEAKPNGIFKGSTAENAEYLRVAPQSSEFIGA

As for `C=CC(=O)Nc1cccc(-n2c(=O)c(-c3ccccc3)nc3cnc(Nc4cc(C)c(N5CCN(C)CC5)cc4OC)nc32)c1` [Compound 38, N-(3-(2-((2-methoxy-5-methyl-4-(4-methyl-1-piperazinyl)phenyl)amino)-7-oxo-6-phenyl-8(7H)pteridinonyl)phenyl)acrylamide], the melting point is 292.9 to 293.4 °C. Moreover, the IC50 on Wild type EGFR was 2.8 nM. The IC50 in data set [1] came to 2.35 µM. For the same compound, the IC50 in data set [2] came to 0.165 µM. Besides, the solubility in data set [3] was below 10 µg/mL. Besides, on EGFR-L858R/T790M, the IC50 was 0.6 nM.

Compound `C=CC(=O)Nc1cccc(-n2c(=O)c(C(C)C)nc3cnc(Nc4cc(C)c(N5CCN(C)CC5)cc4OC)nc32)c1` [Compound 39, N-(3-(6-isopropyl-2-((2-methoxy-5-methyl-4-(4-methyl-1-piperazinyl)phenyl)amino)-7-oxo-8(7H)pteridinyl)phenyl)acrylamide] yielded a melting point of 227.5 to 228.5 °C. Besides, on Wild type EGFR, the IC50 is 130 nM. Further, in data set [1], the IC50 was found to be 3.84 µM. Also, the IC50 in data set [2] turned out to be 0.572 µM. Besides, the solubility in data set [3] is below 10 µg/mL. In addition, the IC50 on EGFR-L858R/T790M worked out at 82.2 nM.

In turn, `C=CC(=O)N1CC[C@H](n2c(=O)c(-c3ccccc3)nc3cnc(Nc4ccc(N(C)CCN(C)C)c(C)c4)nc32)C1` [Compound 40] gave a melting point of 256.1 to 256.4 °C. The IC50 at Wild type EGFR was above 10000 nM. In addition, in data set [1], the IC50 was found to be 1.38 µM. Further, the IC50 in data set [2] was 1.05 µM. Moreover, in data set [3], the solubility is above 10 µg/mL. Also, the IC50 at EGFR-L858R/T790M was found to be 73.1 nM.

Compound `C=CC(=O)N1CC[C@H](n2c(=O)c(-c3ccccc3)nc3cnc(Nc4ccc(N(C)CCN(C)C)c(OC)c4)nc32)C1` [Compound 41] gave a melting point of 260 to 260.2 °C. On Wild type EGFR, the IC50 came out at 5350 nM. The IC50 in data set [1] was found to be 1.26 µM. Also, the IC50 in data set [2] worked out at 1.19 µM. Besides, the solubility in data set [3] is above 10 µg/mL. For the same compound, the IC50 on EGFR-L858R/T790M worked out at 38.6 nM.

With `C=CC(=O)Nc1cccc(-n2c(=O)c(-c3ccccc3)nc3cnc(Nc4ccc(N5CCN(C)CC5)c(OC)c4)nc32)c1` [Compound 42, N-(3-(2-((3-methoxy-4-(4-methyl-1-piperazinyl)phenyl)amino)-7-oxo-6-phenyl-8(7H)pteridinyl)phenyl)acrylamide], the melting point lay in the range of 264.7 to 265.5 °C. Also, the IC50 at Wild type EGFR was found to be 528 nM. Besides, in data set [1], the IC50 came out at 0.328 µM. Further, in data set [2], the IC50 came out at 0.003 µM. In addition, the solubility in data set [3] is below 10 µg/mL. Moreover, at EGFR-L858R/T790M, the IC50 turned out to be 47.5 nM.

In the case of `C=CC(=O)N1CCC[C@H](Cn2c(=O)c(-c3ccccc3)nc3cnc(Nc4ccc(N5CCN(C)CC5)cc4OC)nc32)C1` [Compound 44], the melting point was 208.3 to 209.3 °C. Also, the IC50 on Wild type EGFR worked out at 343 nM. The IC50 in data set [1] was 1.81 µM. In addition, the IC50 in data set [2] was determined as 1.56 µM. Besides, the solubility in data set [3] was below 10 µg/mL. On EGFR-L858R/T790M, the IC50 was above 1000 nM.

Compound `C=CC(=O)N1CCC[C@@H](n2c(=O)c(-c3ccccc3)nc3cnc(Nc4ccc(N5CCN(C)CC5)cc4OC)nc32)C1` [Compound 45, (R)-8-(1-acryloyl-3-piperidinyl)-2-((2-methoxy-4-(4-methyl-1-piperazinyl)phenyl)amino)-6-phenyl-7(8H)pteridinone] returned a melting point of 134.9 to 135.1 °C. The IC50 on Wild type EGFR was above 1000 nM. Further, in data set [1], the IC50 came out at 4.28 µM. Further, in data set [2], the IC50 came to 1.78 µM. Moreover, in data set [3], the solubility is below 10 µg/mL. Also, on EGFR-L858R/T790M, the IC50 was above 1000 nM.

`C=CC(=O)N1CCC[C@@H](n2c(=O)c(C3CCCCC3)nc3cnc(Nc4ccc(N5CCN(C)CC5)cc4OC)nc32)C1` [Compound 46, (R)-8-(1-acryloyl-3-piperidinyl)-6-cyclohexyl-2-((2-methoxy-4-(4-methyl-1-piperazinyl)phenyl)amino)-7(8H)pteridinone] yielded a melting point of 94.2 to 94.7 °C. Moreover, the IC50 at Wild type EGFR is above 10000 nM. Moreover, the IC50 in data set [1] was 2.39 µM. In data set [2], the IC50 is 2.16 µM. Also, the solubility in data set [3] was found to be 43.2 µg/mL (≈ 73.6 µM). In addition, the IC50 on EGFR-L858R/T790M amounted to 13.3 nM.

As to `C=CC(=O)Nc1cccc(-n2c(=O)c(-c3ccccc3)nc3cnc(Nc4ccc(N5CCN(C)CC5)c(C)c4)nc32)c1` [Compound 47, N-(3-(2-((3-methyl-4-(4-methyl-1-piperazinyl)phenyl)amino)-7-oxy-6-phenyl-8(7H)pteridinyl)phenyl)acrylamide], the melting point was in the range of 265 to 265.2 °C. Moreover, at Wild type EGFR, the IC50 was 0.5 nM. Besides, the IC50 in data set [1] worked out at 1.73 µM. The IC50 in data set [2] was found to be 0.018 µM. For the same compound, in data set [3], the solubility was below 10 µg/mL. Moreover, the IC50 on EGFR-L858R/T790M turned out to be 0.2 nM.

Consider `C=CC(=O)Nc1cccc(-n2c(=O)c(-c3ccccc3)nc3cnc(Nc4ccc(N5CCC(N6CCN(C)CC6)CC5)cc4OC)nc32)c1` [Compound 48, N-(3-(2-((2-methoxy-4-(4-(4-methyl-1-piperazinyl)piperidinyl)phenyl)amino)-7-oxo-6-phenyl-8(7H)pteridinyl)phenyl)acrylamide], for which the melting point was above 300 °C. In addition, the IC50 on Wild type EGFR came to 362 nM. Further, the IC50 in data set [1] is 0.64 µM. Further, the IC50 in data set [2] came out at 0.031 µM. The solubility in data set [3] is below 10 µg/mL. The IC50 at EGFR-L858R/T790M was found to be 20.8 nM.

In the case of `C=CC(=O)N1CC[C@H](n2c(=O)c(C3CCCCC3)nc3cnc(Nc4ccc(N5CCN(C)CC5)cc4OC)nc32)C1` [Compound 50, (S)-8-(1-acryloyl-3-pyrrolidinyl)-6-cyclohexyl-2-((2-methoxy-4-(4-methyl-1-piperazinyl)phenyl)amino)-7(8H)pteridinone], the melting point lay within 117.9 to 118.2 °C. Also, the IC50 at Wild type EGFR came to 2.7 nM. Besides, in data set [1], the IC50 stood at 1.11 µM. The IC50 in data set [2] amounted to 1.24 µM. Also, the solubility in data set [3] came to 719 µg/mL (≈ 1260 µM). The IC50 on EGFR-L858R/T790M was 86.9 nM.

In the case of `COc1cc(N2CCN(C)CC2)ccc1Nc1ncc2nc(-c3ccccc3)c(=O)n(-c3cccc(N)c3)c2n1` [Compound 51, 8-(3-aminophenyl)-2-((2-methoxy-4-(4-methyl-1-piperazinyl)phenyl)amino)-6-phenyl-7(8H)pteridinone], the melting point fell in the range of 235.5 to 235.7 °C. For the same compound, the IC50 on Wild type EGFR was 16.6 nM. In data set [1], the IC50 is 2.06 µM. The IC50 in data set [2] came out at 5.34 µM. Further, the solubility in data set [3] is below 10 µg/mL. Besides, the IC50 on EGFR-L858R/T790M amounted to 251 nM.

With `C=CC(=O)Nc1cccc(-n2c(=O)c(-c3ccc(F)cc3)nc3cnc(Nc4ccc(N5CCN(C)CC5)cc4OC)nc32)c1` [Compound 52, N-(3-(6-(4-fluorophenyl)-2-((2-methoxy-4-(4-methyl-1-piperazinyl)phenyl)amino)-7-oxo-8(7H)pteridinyl)phenyl)acrylamide], the melting point is 262.3 to 262.7 °C. Moreover, on Wild type EGFR, the IC50 was 1.3 nM. Further, in data set [1], the IC50 came to 1.46 µM. In data set [2], the IC50 was 0.044 µM. In addition, in data set [3], the solubility is below 10 µg/mL. Besides, at EGFR-L858R/T790M, the IC50 is 0.6 nM.

Take `C=CC(=O)Nc1cccc(-n2c(=O)c(-c3ccc(OC)cc3)nc3cnc(Nc4ccc(N5CCN(C)CC5)cc4OC)nc32)c1` [Compound 54, N-(3-(2-((2-methoxy-4-(4-methyl-1-piperazinyl)phenyl)amino)-6-(4-methoxyphenyl)-7-oxo-8(7H)pteridinyl)phenyl)acrylamide]: the melting point was in the range of 296.5 to 297.3 °C. The IC50 at Wild type EGFR came out at 1.5 nM. Further, the IC50 in data set [1] amounted to 4.1 µM. Besides, in data set [2], the IC50 is 1.06 µM. For the same compound, the solubility in data set [3] was below 10 µg/mL. Moreover, the IC50 at EGFR-L858R/T790M came out at 3.5 nM.

Compound `C=CC(=O)Nc1cccc(-n2c(=O)c(-c3cc(F)cc(F)c3)nc3cnc(Nc4ccc(N5CCN(C)CC5)cc4OC)nc32)c1` [Compound 55, N-(3-(6-(3,5-difluorophenyl)-2-((2-methoxy-4-(4-methyl-1-piperazinyl)phenyl)amino)-7-oxo-8(7H)pteridinyl)phenyl)acrylamide] registered a melting point of 291.2 to 291.4 °C. Also, the IC50 at Wild type EGFR came out at 6.6 nM. Also, in data set [1], the IC50 was 1.3 µM. For the same compound, the IC50 in data set [2] stood at 0.262 µM. Further, the solubility in data set [3] is below 10 µg/mL. Besides, on EGFR-L858R/T790M, the IC50 was determined as 6.1 nM.

`C=CC(=O)Nc1cccc(-n2c(=O)c(-c3ccc(F)c(F)c3)nc3cnc(Nc4ccc(N5CCN(C)CC5)cc4OC)nc32)c1` [Compound 56, N-(3-(6-(3,4-difluorophenyl)-2-((2-methoxy-4-(4-methyl-1-piperazinyl)phenyl)amino)-7-oxo-8(7H)pteridinyl)phenyl)acrylamide] showed a melting point above 300 °C. Further, the IC50 at Wild type EGFR was 1.6 nM. The IC50 in data set [1] was 1.2 µM. The IC50 in data set [2] stood at 0.228 µM. The solubility in data set [3] is below 10 µg/mL. Further, the IC50 on EGFR-L858R/T790M amounted to 1.7 nM.

`C=CC(=O)Nc1cccc(-n2c(=O)c(-c3cccc(OC)c3)nc3cnc(Nc4ccc(N5CCN(C)CC5)cc4OC)nc32)c1` [Compound 57, N-(3-(2-((2-methoxy-4-(4-methyl-1-piperazinyl)phenyl)amino)-6-(3-methoxyphenyl)-7-oxo-8(7H)pteridinyl)phenyl)acrylamide] gave a melting point above 300 °C. Besides, on Wild type EGFR, the IC50 is 2.8 nM. The IC50 in data set [1] is 1.37 µM. Moreover, the IC50 in data set [2] amounted to 0.225 µM. For the same compound, the solubility in data set [3] was below 10 µg/mL. The IC50 on EGFR-L858R/T790M turned out to be 1.8 nM.
